Measurements taken from patent US20250380696A1, “METHOD FOR CONTROLLING UNDESIRED PLANTS AND PROMOTING GROWTH OF USEFUL PLANTS” (ISHIHARA SANGYO KAISHA, LTD., priority 2022, published 2025).

Experiments:
Type in all cases: in vivo
[1] = system: Italian ryegrass (Lolium multiflorum); experiment: (2) Herbicidal effect test, pot, spray at 2.5 to 3.0 leaf stage; conditions: 16th day after spraying
From the text: (§1) [formula] • X: growth inhibition rate when treated with α (g/ha) of compound A, • Y: growth inhibition rate when treated with β (g/ha) of compound B, • E: growth inhibition rate expected when treated with α (g/ha) of compound A and β (g/ha) of compound B (expected value).
(§2) Upland soil was put in a 1/1,000,000 hectare pot, and seeds of Italian ryegrass (Lolium multiflorum) were sown. When the Italian ryegrass reached 2.5 to 3.0 leaf stage, a water-based suspension containing tiafenacil as the active ingredient, prepared by a conventional method for preparing a water-based suspension, and an emulsifiable concentrate containing S-metolachlor as the active ingredient (tradename: Dual Gold, manufactured by Syngenta), were diluted with water (in an amount corresponding to 200 liter per hectare) containing 0.5 vol % of an agricultural spreader (tradename: Destiny HC, manufactured by Winfield Solutions, LLC.) and sprayed by a small spray gun (model: W-101-132G, manufactured by ANEST IWATA Corporation). On the 16th day after spraying, the state of growth of the Italian ryegrass was visually observed, and the growth inhibition rate (%) was obtained in accordance with the evaluation standards described in the above (1) herbicidal effect test, and the results are shown in Table 2. Further, the expected value of the growth inhibition rate (%) was calculated in accordance with the Colby's formula described in the above (1) herbicidal effect test, and the results are also shown in Table 2.

[2] = system: Italian ryegrass (Lolium multiflorum); experiment: (3) Herbicidal effect test, pot, spray at 2.8 to 3.2 leaf stage; conditions: 7th day after spraying
From the text: as §1
as §2, with “2.8” for “2.5”, “3.2” for “3.0”, “On the 16th day after spraying, the state of growth of the Italian ryegrass was visually observed, and the growth inhibition rate (%) was obtained in accordance with the evaluation standards described in the above (1) herbicidal effect test, and the results are shown in Table 2.” left out, “3.” for “2.”

[3] = system: forage corn (cultivar: SNOW DENT OTOHA); experiment: (20) Plant growth promotion effect test (corn), Italian ryegrass sown; conditions: 33rd day after the sowing, above-ground part
Experimental: Upland soil was put in a 1/1,000,000 hectare pot, and seeds of Italian ryegrass (Lolium multiflorum) were sown. When the Italian ryegrass reached 2.7 to 3.0 leaf stage, a water-based suspension containing tiafenacil as the active ingredient, prepared by a conventional method for preparing a water-based suspension, and an emulsifiable concentrate containing dimethenamid-P as the active ingredient (tradename: Fieldstar P emulsifiable concentrate, manufactured by BASF) were diluted with water (in an amount corresponding to 200 liter per hectare) containing 0.5 vol % of an agricultural spreader (tradename: Destiny HC, manufactured by Winfield Solutions, LLC.) and sprayed by a small spray gun (model: W-101-132G, manufactured by ANEST IWATA Corporation). Seeds of forage corn (cultivar: SNOW DENT OTOHA, manufactured by SNOW BRAND SEED Co., Ltd.) were sown in the pot after spraying. On the 33rd day after the sowing, the above-ground part of the forage corn was reaped, and its weight was measured to obtain the raw weight.

[4] = system: Italian ryegrass (Lolium multiflorum); experiment: (4) Herbicidal effect test, pot, spray at 2.5 to 3.0 leaf stage; conditions: 7th day after spraying
From the text: as §1
Upland soil was put in a 1/1,000,000 hectare pot, and seeds of Italian ryegrass (Lolium multiflorum) were sown. When the Italian ryegrass reached 2.5 to 3.0 leaf stage, a water-based suspension containing tiafenacil as the active ingredient, prepared by a conventional method for preparing a water-based suspension, and a wettable powder containing metribuzin as the active ingredient (tradename: SENCOR wettable powder, manufactured by Bayer Crop Science) were diluted with water (in an amount corresponding to 200 liter per hectare) containing 0.5 vol % of an agricultural spreader (tradename: Destiny HC, manufactured by Winfield Solutions, LLC.) and sprayed by a small spray gun (model: W-101-132G, manufactured by ANEST IWATA Corporation).
On the 7th day after spraying, the state of growth of the Italian ryegrass was visually observed, and the growth inhibition rate (%) was obtained in accordance with the evaluation standards described in the above (1) herbicidal effect test, and the results are shown in Table 4. Further, the expected value of the growth inhibition rate (%) was calculated in accordance with the Colby's formula described in the above (1) herbicidal effect test, and the results are also shown in Table 4.

[5] = system: forage corn (cultivar: SNOW DENT OTOHA); experiment: (19) Plant growth promotion effect test (corn), Italian ryegrass sown; conditions: 21st day after the sowing, above-ground part
From the text: Upland soil was put in a 1/1,000,000 hectare pot, and seeds of Italian ryegrass (Lolium multiflorum) were sown. When the Italian ryegrass reached 3.2 to 3.7 leaf stage, a water-based suspension containing tiafenacil as the active ingredient, prepared by a conventional method for preparing a water-based suspension, and a wettable powder containing tri-allate as the active ingredient, prepared by a conventional method for preparing a wettable powder or an emulsifiable concentrate containing pethoxamid as the active ingredient (tradename: Successor 600, manufactured by Stähler Suisse SA) were diluted with water (in an amount corresponding to 200 liter per hectare) containing 0.5 vol % of an agricultural spreader (tradename: Destiny HC, manufactured by Winfield Solutions, LLC.) and sprayed by a small spray gun (model: W-101-132G, manufactured by ANEST IWATA Corporation). Seeds of forage corn (cultivar: SNOW DENT OTOHA, manufactured by SNOW BRAND SEED Co., Ltd.) were sown in the pot after spraying. On the 21st day after the sowing, the above-ground part of the forage corn was reaped, and its weight was measured to obtain the raw weight.

CCc1cccc(C)c1N(C(=O)CCl)[C@@H](C)COC [S-metolachlor]
Growth inhibition rate (%) Measured value ([1]; Dose 62.5 g/ha): 0% | Growth inhibition rate (%) Measured value ([1]; Dose 125 g/ha): 0% | Growth inhibition rate (%) Measured value ([1]; Dose 750 g/ha): 7% | Growth inhibition rate (%) Measured value ([1]; Dose 1500 g/ha): 55% | Growth inhibition rate (%) Measured value ([1]; Dose 3000 g/ha): 73% | Growth inhibition rate (%) Measured value ([2]; Dose 15.6 g/ha): 0%

COC[C@H](C)N(C(=O)CCl)c1c(C)csc1C [dimethenamid-P]
Raw weight (g) of forage corn ([3]; Dose 60 g/ha): 9.8 g | Raw weight (g) of forage corn ([3]; Dose 375 g/ha): 12.5 g | Raw weight (g) of forage corn ([3]; Dose 750 g/ha): 8.0 g

CSc1nnc(C(C)(C)C)c(=O)n1N [metribuzin]
inhibition at 9.38 g/ha ([4]; Lolium multiflorum, Dose 9.38 g/ha, read-out: Growth inhibition rate (%) Measured value): 0% | inhibition at 275 g/ha ([4]; Lolium multiflorum, Dose 275 g/ha, read-out: Growth inhibition rate (%) Measured value): 45% | inhibition at 550 g/ha ([4]; Lolium multiflorum, Dose 550 g/ha, read-out: Growth inhibition rate (%) Measured value): 57% | inhibition at 1100 g/ha ([4]; Lolium multiflorum, Dose 1100 g/ha, read-out: Growth inhibition rate (%) Measured value): 88%

CCOCCN(C(=O)CCl)C(=C(C)C)c1ccccc1 [pethoxamid]
Raw weight (g) of forage corn ([5]; Dose 93.8 g/ha): 3.4 g | Raw weight (g) of forage corn ([5]; Dose 375 g/ha): 2.2 g | Raw weight (g) of forage corn ([5]; Dose 750 g/ha): 3.6 g

COC(=O)CCNC(=O)C(C)Sc1cc(-n2c(=O)cc(C(F)(F)F)n(C)c2=O)c(F)cc1Cl (stereo not drawn) [tiafenacil]
Raw weight (g) of forage corn ([5]; Dose 6.25 g/ha): 3.9 g | Growth inhibition rate (%) Measured value ([4]; Dose 6.25 g/ha): 30% | Raw weight (g) of forage corn ([3]; Dose 6.25 g/ha): 12.1 g | Growth inhibition rate (%) Measured value ([1]; Dose 12.5 g/ha): 30% | Growth inhibition rate (%) Measured value ([2]; Dose 12.5 g/ha): 53%

CC(C)N(C(=O)SCC(Cl)=C(Cl)Cl)C(C)C [tri-allate]
Raw weight (g) of forage corn ([5]; Dose 75 g/ha): 2.6 g | Raw weight (g) of forage corn ([5]; Dose 625 g/ha): 2.2 g | Raw weight (g) of forage corn ([5]; Dose 1250 g/ha): 2.5 g
